Results as given in patent US20100172854A1, “ANTIBACTERIAL FORMULATIONS” (priority 2007, published 2010).
Values after ≈ are worked out from the molar mass of the structure shown.

Legend:
[1] = system: Propionibacterium acnes NCTC 737; assay: MBC assay; type: cell-based; conditions: P. acnes NCTC 737
Procedure: (§1) The propionibacteria were cultured and maintained on Wilkins-Chalgren Anaerobe Medium (agar and broth) at pH 6.0; all cultures were incubated anaerobically at 37° C. for 72 hours.
(§2) This assay, normally carried out after an MIC assay, determines the minimum concentration of a compound that is lethal to the micro-organism being tested.
(§3) These samples were then individually sub-cultured on antibiotic-free agar medium, under the incubation conditions described above. Following incubation they were examined visually for microbial growth.

S. aureus ATCC 12600-U = assay: MBC assay; type: cell-based, Staphylococcus aureus
Procedure: (§4) The staphylococci were cultured and maintained on Mueller-Hinton Medium (agar and broth) at pH 7.2; cultures were incubated aerobically at 37° C. for 19-20 hours.
as §2, §3

S. aureus ATCC 12604 = assay: MBC assay; type: cell-based, Staphylococcus aureus
Procedure: as §4, §2, §3

S. aureus ATCC 12605 = assay: MBC assay; type: cell-based, Staphylococcus aureus
Procedure: as §4, §2, §3

S. aureus CPHL EMRSA 16 = assay: MBC assay; type: cell-based, Staphylococcus aureus; conditions: resistance phenotype Met/β-lactams
Procedure: as §4, §2, §3

[2] = system: S. aureus CPHL GISA HO41340156; assay: MBC assay; type: cell-based, Staphylococcus aureus; conditions: resistance phenotype Van/Tec (intermediate)
Procedure: as §4, §2, §3

S. aureus CPHL VISA Mu3 = assay: MBC assay; type: cell-based, Staphylococcus aureus; conditions: resistance phenotype Van (intermediate)
Procedure: as §4, §2, §3

S. aureus NCTC 12493 = assay: MBC assay; type: cell-based, Staphylococcus aureus
Procedure: as §4, §2, §3

[3] = system: Porphyromonas gingivalis ATCC 53978; assay: MIC assay; type: cell-based; conditions: ATCC53978
Procedure: (§5) The P. gingivalis strains were cultured and maintained on Wilkins-Chalgren Anaerobe Medium (agar and broth) at pH 7.0; all cultures were incubated anaerobically at 37° C. for 5-7 days.
(§6) This is a standard international method for quantitatively assessing the antimicrobial activity of a compound in a liquid medium. The method used a sterile 96-well microtitre plate, capable of holding about 200 μl of liquid per well. The wells contained liquid culture medium and ranges of decreasing concentrations of the relevant test compound in doubling dilutions (e.g. 1000, 500, 250, 125 . . . μg/ml, etc. down to 0.49 μg/ml). The culture media were as described above.
(§7) The wells were inoculated with a liquid suspension of freshly grown micro-organism and incubated under the conditions described above. After incubation, the microtitre plate was examined visually (with the aid of a light box) for cloudiness in each well, which would indicate microbial growth. The MIC value was recorded as the lowest concentration of test compound required to inhibit microbial growth, i.e. the lowest concentration for which the liquid in the well remained clear.
(§8) The assays included both negative (culture medium with no micro-organisms) and positive (culture medium plus diluting solvent plus micro-organism) controls.

[4] = system: Porphyromonas gingivalis ATCC BAA-308; assay: MIC assay; type: cell-based; conditions: ATCCBAA308
Procedure: as §5, §6, §7, §8

[5] = system: Porphyromonas gingivalis NCTC 11834; assay: MIC assay; type: cell-based; conditions: NCTC11834
Procedure: as §5, §6, §7, §8

P. granulosum PPR-006 = assay: Agar dilution MIC assay; type: cell-based, Propionibacterium granulosum; conditions: Propionibacterium, PPR006
Procedure: as §1
(§9) This is a standard international method for quantitatively assessing the antimicrobial activity of a compound in a solid medium. The test compound was prepared to 40× the highest concentration required (e.g. 10 mg/ml for a final concentration of 250 μg/ml) and a series of doubling dilutions were performed in a suitable solvent. A set amount of these antimicrobial stock solutions was then added to molten agar medium (ca. 55° C.), mixed thoroughly, poured into sterile Petri dishes and allowed to cool/set. The culture medium was as described above.
(§10) A Multipoint™ Inoculator (AQS Manufacturing Ltd, UK) was used to inoculate the plates by spotting the inocula onto the surface of the agar, delivering approximately 1 to 2 μl per spot (yielding 10^5 CFU (colony forming units) per spot).
The plate(s) were then incubated under the conditions described above, following which they were examined visually for signs of bacterial growth. The MIC value was ascertained when there was a marked reduction in, or total loss of, growth on the test plate at the lowest concentration as compared to that of the growth on the control plate. […]

P. acnes PRP-003 = assay: Agar dilution MIC assay; type: cell-based, Propionibacterium acnes; conditions: Cutibacterium acnes, PRP003, resistance phenotype Tet
Procedure: as §1, §9, §10
(§11) The plate(s) were then incubated under the conditions described above, following which they were examined visually for signs of bacterial growth. The MIC value was ascertained when there was a marked reduction in, or total loss of, growth on the test plate at the lowest concentration as compared to that of the growth on the control plate.
(§12) The assays were conducted in triplicate and included a positive control (culture medium, diluting solvent and inoculum).

P. acnes PRP-010 = assay: Agar dilution MIC assay; type: cell-based, Propionibacterium acnes; conditions: Cutibacterium acnes, PRP010, resistance phenotype MLSK
Procedure: as §1, §9, §10, §11, §12

P. acnes PRP-026 = assay: Agar dilution MIC assay; type: cell-based, Propionibacterium acnes; conditions: Cutibacterium acnes, PRP026, resistance phenotype MLS
Procedure: as §1, §9, §10, §11, §12

P. acnes PRP-046 = assay: Agar dilution MIC assay; type: cell-based, Propionibacterium acnes; conditions: Cutibacterium acnes, PRP046, resistance phenotype None
Procedure: as §1, §9, §10, §11, §12

P. acnes PRP-053 = assay: Agar dilution MIC assay; type: cell-based, Propionibacterium acnes; conditions: Cutibacterium acnes, PRP053, resistance phenotype Tet/MLS
Procedure: as §1, §9, §10, §11, §12

P. acnes PRP-059 = assay: Agar dilution MIC assay; type: cell-based, Propionibacterium acnes; conditions: Cutibacterium acnes, PRP059, resistance phenotype MLS
Procedure: as §1, §9, §10, §11, §12

P. acnes PRP-068 = assay: Agar dilution MIC assay; type: cell-based, Propionibacterium acnes; conditions: Cutibacterium acnes, PRP068, resistance phenotype Ery
Procedure: as §1, §9, §10, §11, §12

P. acnes PRP-102 = assay: Agar dilution MIC assay; type: cell-based, Propionibacterium acnes; conditions: Cutibacterium acnes, PRP102, resistance phenotype Tet/MLS
Procedure: as §1, §9, §10, §11, §12

tumour = conditions: compound isolated from Aspergillus fumigatus, believed to be Antioxidant 2246; cited from earlier work

For `Cc1cc(Cc2cc(C)cc(C(C)(C)C)c2O)c(O)c(C(C)(C)C)c1` [AO 2246, 2,2′-methylene-bis(4-methyl-6-tert-butylphenol)], the MBC ([1]; Cutibacterium acnes, NCTC737) was 15.6 µg/mL (≈ 45.8 µM), the MIC/MBC Ratio [1] was 0.25 and the “MIC/MBC Ratio” value (S. aureus ATCC 12600-U) was 0.06. The MBC (S. aureus ATCC 12600-U; Staphylococcus aureus, ATCC12600) was 15.6 µg/mL (≈ 45.8 µM), the “MIC/MBC Ratio” value (S. aureus ATCC 12604) was 0.5 and the MBC (S. aureus ATCC 12604; Staphylococcus aureus, ATCC12604) was 3.9 µg/mL (≈ 11.5 µM). For the same compound, the “MIC/MBC Ratio” value (S. aureus ATCC 12605) was 1, the MBC (S. aureus ATCC 12605; Staphylococcus aureus, ATCC12605) was 1.95 µg/mL (≈ 5.73 µM) and the MBC (S. aureus CPHL EMRSA 16; Staphylococcus aureus) was 7.8 µg/mL (≈ 22.9 µM). The “MIC/MBC Ratio” value (S. aureus CPHL EMRSA 16) was 0.25, the MBC ([2]; Staphylococcus aureus) was 3.9 µg/mL (≈ 11.5 µM) and the “MIC/MBC Ratio” value [2] was 0.5. For the same compound, the MBC (S. aureus CPHL VISA Mu3; Staphylococcus aureus) was 7.8 µg/mL (≈ 22.9 µM), the “MIC/MBC Ratio” value (S. aureus CPHL VISA Mu3) was 0.25 and the “MIC/MBC Ratio” value (S. aureus NCTC 12493; S. aureus NCTC 12493, resistance phenotype Met) was 0.5. It also gave an MBC (S. aureus NCTC 12493; Staphylococcus aureus, NCTC12493) of 1.95 µg/mL (≈ 5.73 µM), an MIC [3] of 0.98 µg/mL (≈ 2.88 µM) and an MIC [4] of 3.9 µg/mL (≈ 11.5 µM). The MIC [5] was 3.9 µg/mL (≈ 11.5 µM), the MIC (P. granulosum PPR-006) was 1.95 µg/mL (≈ 5.73 µM) and the MIC (P. acnes PRP-003) was 3.9 µg/mL (≈ 11.5 µM). It also gave an MIC (P. acnes PRP-010) of 3.9 µg/mL (≈ 11.5 µM), an MIC (P. acnes PRP-026) of 3.9 µg/mL (≈ 11.5 µM) and an MIC (P. acnes PRP-046) of 3.9 µg/mL (≈ 11.5 µM). It also gave an MIC (P. acnes PRP-053) of 3.9 µg/mL (≈ 11.5 µM), an MIC (P. acnes PRP-059) of 3.9 µg/mL (≈ 11.5 µM) and an MIC (P. acnes PRP-068) of 3.9 µg/mL (≈ 11.5 µM). For the same compound, the MIC (P. acnes PRP-102) was 3.9 µg/mL (≈ 11.5 µM) and the anti-tumour activity (tumour) was “anti-tumour activity”.
